According to article PMC11410943 (Nature Communications, 2024):
≈ marks a conversion by molar mass, not a printed value. Like-named read-outs stand apart in the source and are kept apart here.

Key:
[1] = tested on: other cardiac ion channels; assay: Other cardiac ion channels; format: cell-based
[2] = Plasma protein binding, equilibrium dialysis; format: in vitro ADME, rats; details: % bound
[3] = Hepatocyte stability / intrinsic clearance; format: in vitro ADME, rat
[4] = Hepatocyte stability / intrinsic clearance; format: in vitro ADME, dog
[5] = molecular target: CYP3A4 (Homo sapiens, UniProt P08684); assay: CYP reaction phenotyping; format: in vitro ADME
[6] = molecular target: bile salt export pump (BSEP) (Homo sapiens, UniProt O95342); assay: BSEP inhibition and substrate determination; format: in vitro ADME; details: up to 50 µM
[7] = Partitioning into red blood cells; format: in vitro ADME
[8] = Blood-brain barrier crossing
[9] = Permeability; format: in vitro ADME
[10] = molecular target: acetylcholine esterase (AChE) (Homo sapiens, UniProt P22303); assay: AChE inhibition, reversibility on dilution; format: biochemical; details: 30 μM, 100-fold dilution to 0.3 μM, excess AChE
[11] = tested on: K. pneumoniae; assay: Killing kinetics assay; format: cell-based; details: 0.5X to 16X MIC, susceptible and MDR strains
[12] = tested on: E. cloacae; format: cell-based
[13] = tested on: P. aeruginosa; assay: Neutropenic mouse; format: in vivo
[14] = tested on: A. baumannii; assay: Neutropenic mouse; format: in vivo; details: SC every 8 h, wild-type and MDR isolates
[15] = tested on: E. coli; assay: Neutropenic mouse; format: in vivo; details: SC every 8 h, wild-type and MDR isolates
[16] = tested on: A. baumannii; details: in vivo, iv
[17] = tested on: E. coli; assay: Neutropenic rat lung infection model; format: in vivo; details: IV infusion, MDR isolates
[18] = Dog pharmacokinetic study; format: in vivo, Beagle dog; details: dogs
[19] = Bile duct cannulation / excretion study in rats; format: in vivo, Sprague-Dawley rats
[20] = Rat 14-day GLP toxicology / toxicokinetics; format: in vivo
[21] = Dog 14-day GLP toxicology; format: in vivo
[22] = MAD study C002-2023-01; format: in vivo, healthy human volunteers; details: 240 mg, two subjects
[23] = tested on: E. coli
[24] = tested on: P. aeruginosa
[25] = tested on: A. baumannii
[26] = tested on: diverse Gram-negative pathogens
[27] = tested on: Escherichia coli; assay: MIC
[28] = tested on: Pseudomonas aeruginosa; assay: MIC; details: for MIC: Pseudomonas aeruginosa
[29] = tested on: Klebsiella pneumoniae; assay: MIC
[30] = tested on: Acinetobacter baumannii; assay: MIC; details: Acinetobacter baumannii
[31] = tested on: Enterobacter cloacae; assay: MIC; details: Enterobacter cloacae
[32] = tested on: Citrobacter spp.; assay: MIC; details: IHMA/CARB-X MDR clinical isolates 2019, N=151
[33] = tested on: Serratia marcescens; assay: MIC; details: IHMA/CARB-X MDR clinical isolates 2019, N=45
[34] = tested on: Morganella morganii; assay: MIC; details: IHMA/CARB-X MDR clinical isolates 2019, N=42
[35] = tested on: Stenotrophomonas maltophilia; assay: MIC; details: IHMA/CARB-X MDR clinical isolates 2019, N=150
[36] = tested on: E. faecalis / E. faecium; assay: MIC
[37] = tested on: P. mirabilis; assay: MIC; details: Proteus mirabilis, read-out: median MIC
[38] = tested on: K. pneumoniae; assay: Neutropenic rat lung infection model; details: IV infusion, MDR isolates
[39] = tested on: MDR Gram-negative and Gram-positive pathogens; assay: MIC
[40] = Prediction of human PK by allometry / 2-compartment model; details: 70 kg
[41] = IHMA/CARB-X MDR clinical isolates 2019, N=300
[42] = read-out: median MIC, panel of ATCC strains

CYP3A4, sequence (P08684 whole entry): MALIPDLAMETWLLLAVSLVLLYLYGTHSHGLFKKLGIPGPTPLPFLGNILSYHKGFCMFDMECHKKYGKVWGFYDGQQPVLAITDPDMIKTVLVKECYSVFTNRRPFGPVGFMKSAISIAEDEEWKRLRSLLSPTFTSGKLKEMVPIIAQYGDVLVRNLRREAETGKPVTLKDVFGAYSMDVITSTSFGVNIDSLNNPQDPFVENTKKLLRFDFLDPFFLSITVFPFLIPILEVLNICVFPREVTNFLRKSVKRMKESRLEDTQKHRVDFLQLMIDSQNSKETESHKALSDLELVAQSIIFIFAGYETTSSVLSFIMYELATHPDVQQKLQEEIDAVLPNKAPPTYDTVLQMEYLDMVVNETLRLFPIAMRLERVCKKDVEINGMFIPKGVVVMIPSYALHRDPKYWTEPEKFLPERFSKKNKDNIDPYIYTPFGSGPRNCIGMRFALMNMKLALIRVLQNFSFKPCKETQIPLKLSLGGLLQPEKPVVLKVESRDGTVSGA
bile salt export pump (BSEP), sequence (O95342 whole entry, species assumed): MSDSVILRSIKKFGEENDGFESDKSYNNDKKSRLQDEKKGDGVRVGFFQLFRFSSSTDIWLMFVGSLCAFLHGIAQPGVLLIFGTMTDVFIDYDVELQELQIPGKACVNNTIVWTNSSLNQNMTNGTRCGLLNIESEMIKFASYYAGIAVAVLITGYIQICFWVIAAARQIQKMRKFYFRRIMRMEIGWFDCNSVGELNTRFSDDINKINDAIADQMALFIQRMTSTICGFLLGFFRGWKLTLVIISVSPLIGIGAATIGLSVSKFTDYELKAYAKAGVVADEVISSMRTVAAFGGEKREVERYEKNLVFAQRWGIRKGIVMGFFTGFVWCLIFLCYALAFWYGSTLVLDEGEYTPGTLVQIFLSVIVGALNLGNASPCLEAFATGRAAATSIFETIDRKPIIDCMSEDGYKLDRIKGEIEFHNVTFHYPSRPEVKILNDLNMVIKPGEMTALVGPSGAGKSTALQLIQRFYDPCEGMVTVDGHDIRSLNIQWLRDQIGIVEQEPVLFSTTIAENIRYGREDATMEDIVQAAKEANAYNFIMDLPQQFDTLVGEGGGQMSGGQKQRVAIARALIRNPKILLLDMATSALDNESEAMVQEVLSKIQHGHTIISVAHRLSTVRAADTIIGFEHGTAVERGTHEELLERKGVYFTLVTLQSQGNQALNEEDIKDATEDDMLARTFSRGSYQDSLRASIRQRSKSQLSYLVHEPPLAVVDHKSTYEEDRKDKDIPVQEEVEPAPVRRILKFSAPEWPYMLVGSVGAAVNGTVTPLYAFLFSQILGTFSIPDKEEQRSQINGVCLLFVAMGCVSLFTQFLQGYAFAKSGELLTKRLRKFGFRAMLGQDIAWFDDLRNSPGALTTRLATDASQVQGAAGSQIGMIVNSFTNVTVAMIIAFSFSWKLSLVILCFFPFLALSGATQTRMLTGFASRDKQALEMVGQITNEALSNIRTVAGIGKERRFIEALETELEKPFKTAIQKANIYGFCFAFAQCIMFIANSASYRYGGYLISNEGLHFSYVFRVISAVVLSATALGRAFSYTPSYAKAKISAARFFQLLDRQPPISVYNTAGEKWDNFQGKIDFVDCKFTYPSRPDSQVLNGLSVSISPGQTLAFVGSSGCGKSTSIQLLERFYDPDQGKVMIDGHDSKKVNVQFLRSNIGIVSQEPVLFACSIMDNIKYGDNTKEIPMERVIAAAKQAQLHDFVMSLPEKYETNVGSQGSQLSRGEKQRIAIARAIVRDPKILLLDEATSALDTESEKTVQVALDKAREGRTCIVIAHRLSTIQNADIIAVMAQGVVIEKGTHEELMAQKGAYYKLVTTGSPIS
acetylcholine esterase (AChE), sequence (P22303 32-614): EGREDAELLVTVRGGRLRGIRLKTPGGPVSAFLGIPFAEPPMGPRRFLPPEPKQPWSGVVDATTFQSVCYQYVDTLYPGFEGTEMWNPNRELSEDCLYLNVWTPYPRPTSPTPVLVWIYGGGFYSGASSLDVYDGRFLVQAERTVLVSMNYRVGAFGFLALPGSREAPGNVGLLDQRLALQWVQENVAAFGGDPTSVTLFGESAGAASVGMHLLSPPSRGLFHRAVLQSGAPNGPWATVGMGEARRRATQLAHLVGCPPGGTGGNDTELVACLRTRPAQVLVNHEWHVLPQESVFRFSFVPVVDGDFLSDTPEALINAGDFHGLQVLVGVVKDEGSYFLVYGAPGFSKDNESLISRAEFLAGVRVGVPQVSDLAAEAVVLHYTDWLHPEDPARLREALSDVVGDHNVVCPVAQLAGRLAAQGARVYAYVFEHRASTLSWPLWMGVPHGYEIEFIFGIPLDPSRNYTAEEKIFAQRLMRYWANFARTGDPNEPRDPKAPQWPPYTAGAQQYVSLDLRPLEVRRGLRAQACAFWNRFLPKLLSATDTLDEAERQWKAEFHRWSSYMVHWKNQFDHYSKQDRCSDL

Question: Which results are given for Cn1c(=O)ccc2ccc(F)c(CCNC[C@H]3CN(c4cnc5c(n4)NC(=O)CO5)C(=O)O3)c21 [BWC0977, 6-[(5S)−5-[[[2-(7-Fluoro-1,2-dihydro-1-methyl-2-oxo-8-quinolinyl)ethyl]amino]methyl]−2-oxo-3-oxazolidinyl]−2H-pyrazino[2,3-b]−1,4-oxazin-3(4H)-one]?
Answer: concentration up to which other cardiac ion channels are not inhibited [1]: > 300 µM; plasma protein binding [2]: 94%; clearance predicted from CLint, % of liver blood flow (LBF) [3]: < 30%; clearance predicted from CLint, % of liver blood flow (LBF) [4]: < 30%; metabolism by CYP3A4 in reaction phenotyping assay [5]: 80%; BSEP substrate / inhibitor status [6]: neither a substrate nor an inhibitor; partitioning into red blood cells [7]: neither partitions into red blood cells; crossing of the blood-brain barrier [8]: nor crosses the blood-brain barrier; permeability [9]: low permeability; reversibility of AChE inhibition [10]: rapidly reversed; in vitro killing kinetics [11]: significant bactericidal activity; in vitro killing kinetics [12]: significant bactericidal activity; dose-ranging efficacy (bacterial burden) ([13]; SC every 8 h, wild-type and MDR isolates): excellent dose-response; PK-PD driver of efficacy ([13]; dose fractionation 160 mg/kg/day SC, P. aeruginosa NCTC 13921): free area-under-the-curve over MIC (fAUC/MIC) as the efficacy driver; dose-ranging efficacy (bacterial burden) [14]: excellent dose-response; dose-ranging efficacy (bacterial burden) [15]: excellent dose-response; dose-response efficacy [16]: excellent bactericidal dose-response; dose-response efficacy [17]: excellent bactericidal dose-response; unchanged drug excreted in urine [18]: 10%; total dose observed unchanged in the bile [19]: about 1.5%; AUC0–24 at NOAEL ([20]; 75 mg/kg/day): 52 µg·h/mL; NOAEL at 14 day ([20]; in vivo): 75 mg/kg/day; Cmax ([20]; in vivo, 75 mg/kg/day): 26 µg/mL; AUC(0-t) ([20]; in vivo, 250 mg/kg/day, AUC0–24 at highest dose level): 355 µg·h/mL; microscopic findings ([20]; up to 250 mg/kg/day): no microscopic findings; microscopic findings ([21]; dose levels above 40 mg/kg/day): Microscopic changes consistent with hepatobiliary toxicity; NOAEL at 14 day ([21]; in vivo): 40 mg/kg/day; AUC(0-t) ([21]; in vivo, 40 mg/kg/day): 90 µg·h/mL; Cmax ([21]; in vivo, 40 mg/kg/day): 25 µg/mL; systemic adverse events [22]: no systemic adverse events; infusion site finding on ultrasound ([22]; 12/14 and 14/14 doses): small non-occlusive thrombus proximal to the infusion site in both volunteers; in vitro resistance frequency [23]: < 1 × 10^−9; resistance frequency [23]: 4 × 10^−9; in vitro resistance frequency [24]: < 1 × 10^−9; resistance frequency [24]: < 1 × 10^−9; in vitro resistance frequency [25]: 2.5 × 10^−9; resistance frequency [25]: 2.5 × 10^−8; spontaneous resistance frequency [26]: < 10^−9; MIC ([27]; Escherichia coli, read-out: median MIC, panel of ATCC strains): 0.03 mg/L (≈ 0.064 µM); MIC90 [27, 41]: 0.5 mg/L (≈ 1.07 µM); MIC90 [28, 41]: 1 mg/L (≈ 2.13 µM); MIC ([28]; NCTC13921, P. aeruginosa NCTC 13921): 0.25 mg/L (≈ 0.534 µM); MIC [28, 42]: 0.25 mg/L (≈ 0.534 µM); MIC90 [29, 41]: 2 mg/L (≈ 4.27 µM); MIC ([29]; Klebsiella pneumoniae, read-out: median MIC, panel of ATCC strains): 0.03 mg/L (≈ 0.064 µM); MIC90 ([30]; IHMA/CARB-X MDR clinical isolates 2019, N=298): 1 mg/L (≈ 2.13 µM); MIC [30, 42]: 0.06 mg/L (≈ 0.128 µM); MIC90 ([31]; IHMA/CARB-X MDR clinical isolates 2019, N=152): 2 mg/L (≈ 4.27 µM); MIC [31, 42]: 0.06 mg/L (≈ 0.128 µM); MIC90 [32]: 1 mg/L (≈ 2.13 µM); MIC90 [33]: 1 mg/L (≈ 2.13 µM); MIC90 [34]: 1 mg/L (≈ 2.13 µM); MIC90 ([34]; Morganella morganii): 1 mg/L (≈ 2.13 µM); MIC90 [35]: 0.25 mg/L (≈ 0.534 µM); MIC90 [36]: 0.06 mg/L (≈ 0.128 µM); MIC [37]: 0.12 mg/L (≈ 0.256 µM); dose-response efficacy [38]: excellent bactericidal dose-response; MIC90 [39]: 0.03 to 2 mg/L (≈ 0.064 to 4.27 µM); predicted human CL [40]: 20.17 L/h; predicted human CLD2 [40]: 1.002 L/h; predicted human V1 [40]: 40.84 L; predicted human V2 [40]: 23.13 L
